Test results published in patent US10201558B2, “Compositions of selenoorganic compounds and methods of use thereof” (Alltech, Inc., priority 2014, dated 2019).
Entries after “also recorded” stand apart in the source; their conditions may differ.

Key:
Type in all cases: cell-based, human
RCAN1.1 = assay: Western blot of RCAN1 (RCAN1.1) protein in IMR-32 cells; settings: 150 ppb, 24 hours
Protocol: (§1) IMR-32 cells were seeded on 6-well plates and then treated with control and various compounds for 6 hours and 24 hours, as described above. After treatments, cells were rinsed with ice-cold PBS and lysed in ice-cold RIPA buffer containing complete proteinase and phosphatase inhibitors (Thermo-Fisher Scientific, Waltham, Mass.) on ice for 30 min Cell lysates were collected using a cell scraper and transfer pipette and then centrifuged at 12000×g for 30 min at 4° C. to remove the DNA pellet and obtain the protein extract. Protein levels in the supernatant of these cell lysates were determined using the Pierce Micro-BCA protein assay kit (Thermo Scientific-Piece Biotechnology, Rockford, Ill.) according to the manufacturer's protocol […]
(§2) Positive signals on the membrane blots were detected using Amersham's enhanced chemiluminescence (ECL) Western Blotting Prime Detection reagents (GE healthcare Lifescience, Pittsburgh, Pa.). Images of these luminescence signals on the membrane blots were captured using the LI-COR Odyssey Fc Image system (Lincoln, Nebr.). […] Protein band densities in the Western blots were determined using the Li—COR Image studio software or NIH ImageJ software, and then normalized by ACTB protein level in each sample. […]
The ability of selenium compounds to regulate RCAN1 expression in IMR-32 cells was also assessed. […]

[1] = system: phosphorylated FOXO4 (pFOXO4 T28); assay: Western blot of phosphorylated FOXO4 in IMR-32 cells; settings: for phosphorylation of FOXO4 (pFOXO4) levels: 6 hours; for pFOXO4 Threonine 28 (T28) levels: 24 hours
Protocol: IMR-32 cells were seeded on 6-well plates and then treated with control and various compounds for 6 hours and 24 hours, as described above. After treatments, cells were rinsed with ice-cold PBS and lysed in ice-cold RIPA buffer containing complete proteinase and phosphatase inhibitors (Thermo-Fisher Scientific, Waltham, Mass.) on ice for 30 min Cell lysates were collected using a cell scraper and transfer pipette and then centrifuged at 12000×g for 30 min at 4° C. to remove the DNA pellet and obtain the protein extract. Protein levels in the supernatant of these cell lysates were determined using the Pierce Micro-BCA protein assay kit (Thermo Scientific-Piece Biotechnology, Rockford, Ill.) according to the manufacturer's protocol
For Western blot analysis, five micrograms of total proteins from control (0 ppb)- and compound(s)-treated cells were subjected to SDS-PAGE gel separation and then transferred to PVDF membranes, as described previously (Reddy, Liu et al. 2008 Science). Membranes were blocked in a phosphate-buffered saline (PBS) containing 5% (w/v) of bovine serum albumin (Sigma, St. Louis, Mo.) and incubated with specific primary antibodies followed by the incubation with HRP-conjugated anti-mouse or anti-rabbit secondary antibodies (1:5000 dilution, Cell Signaling Inc.). All primary antibodies except PGC1a (Abcam, Cambridge, Mass.), G6pc (Santa Cruz, Dallas, Tex.) and Actb (Li-Cor, Lincoln, Nebr.) were purchased from Cell Signaling Inc., Beverly, Mass.
Positive signals on the membrane blots were detected using Amersham's enhanced chemiluminescence (ECL) Western Blotting Prime Detection reagents (GE healthcare Lifescience, Pittsburgh, Pa.). Images of these luminescence signals on the membrane blots were captured using the LI-COR Odyssey Fc Image system (Lincoln, Nebr.). The same membrane blot was stripped and re-blotted with another antibody as described in the GE WB ECL-prime-detection protocol (GE Healthcare Lifescience, Pittsburgh, Pa.). Protein band densities in the Western blots were determined using the Li—COR Image studio software or NIH ImageJ software, and then normalized by ACTB protein level in each sample. Data are presented as mean±SEM of three samples per each group.

GSK3B [2] = assay: Western blot of total GSK3B protein in IMR-32 cells; settings: 150 ppb, 24 hours
Protocol: as §1, §2

GSK3B [3] = assay: QRT-PCR of GSK3B mRNA in IMR-32 cells (normal, control KD, FOXO4 KD); settings: for GSK3B mRNA levels: IMR-32 cells
Protocol: (§3) IMR-32 cells were cultured on 12-well plates for 24 hours and then incubated with FOXO4 siRNA lentiviruses (SC-29650V, Santa Cruz) or control siRNA lentiviruses (sc-108080, Santa Cruz) in the presence of Polybrene (5 μg/ml, Santa Cruz) for 24 hours according to the manufacturer's protocol. These lentiviral siRNA-transfected cells were amplified in normal media for 3 days and then incubated with puromycin for 9-14 days to obtain the stable Control KD (stably transfected with the control siRNAs) and FOXO4KD (stably transfected with Foxo4 siRNAs) cells. These control and Foxo4 KD cells were subjected to cell survival, mitochondrial potential and RNA analysis.
(§4) Human IMR-32 cells were seeded on gelatinized 6-well (6.5×10^5 cells/well) or 24-well (1.3×10^5 cells/well) plates. Cells were treated with control (0 ppb) or various compounds for 6 hours or 24 hours. Total RNA from these cells was isolated using Trizol (Invitrogen) according to the manufacturer's protocol, and then incubated with DNase I to remove any potential contaminated genomic DNA. Then RNA samples were subjected to real-time PCR analysis using the Applied-Bioscience's RT kit and predesigned Taqman probes (Invitrogen), as described previously (Lan et al EMBO J 2003). The mRNA levels of UCP1, UCP2, UCP3, SLC25A27 (UCP4), SLC25A14 (UCP5), PSEN1, Nicastrin, GSK3B, MAPK11-14, PPARG, APOE, RCAN1, RCAN1.1, G6PC, INSR, IGF1R and FOXO4 were measured. Three to six samples were analyzed in each treatment group. Data were normalized by Actin B (ACTB) or Glyceraldehyde Phosphate Dehydrogenase (GAPDH) mRNA levels in each sample and are presented as mean±SEM of 3-6 samples.
(§5) Expression of genes such as Nicastrin and GSK3B (FIGS. 3A, 3C, 3G-3I, 4A, 4F-4H) which are associated with early-onset AD pathogenesis was attenuated by Compound C. […] Therefore, GSK3B and Nicastrin likely are two direct downstream target genes of FOXO4 in neuronal cells in humans.

UCP3 = assay: QRT-PCR of UCP3 mRNA in IMR-32 cells; settings: 150 ppb, 6 hours
Protocol: as §4

pAKT = assay: Western blot of pAKT in IMR-32 cells; settings: 6 hours and 24 hours
Protocol: as §1, §2

UCP5 (SLC25A14) = assay: QRT-PCR of UCP5 (SLC25A14) mRNA in IMR-32 cells; settings: 150 ppb, 6 hours
Protocol: as §4

PSEN2 = PSEN2 expression in IMR-32 cells
NICASTRIN = assay: QRT-PCR of NICASTRIN mRNA in IMR-32 cells (normal, control KD, FOXO4 KD)
Protocol: as §3, §4
RNA samples were extracted, purified, and subjected to real-time PCR analysis using Applied-Bioscience's RT kit and Taqman probes (Invitrogen) as described previously in Example 4. Protein samples were also prepared from cell lysates and western blot analysis was performed as previously described in Example 4. Data are presented as mean±SEM of 3 protein samples and 4 RNA samples per group. The relative mRNA and protein expression levels of PSEN1 and NICASTRIN, were measured. All primary antibodies were purchased from Cell Signaling Inc., Beverly, Mass.
as §5

[4] = FOXO4KD cells, 75 ppb and 150 ppb, 24 hours
[5] = control KD cells, 75 ppb and 150 ppb, 24 hours

C[Se]C[C@H]1O[C@@H](n2cnc3c(N)ncnc32)C(O)C1O (stereo in doubt) [Compound C, 5′-deoxy-5′-methylselenoadenosine]
RCAN1.1 protein levels (RCAN1.1): decrease | phosphorylation of FOXO4 (pFOXO4) levels [1]: decrease | pFOXO4 Threonine 28 (T28) levels [1]: decreased | total GSK3B protein levels (GSK3B [2]): visibly decreased; also recorded: statistically significant decrease | GSK3B mRNA expression (GSK3B [3]; [4]): not in FOXO4KD cells | GSK3B mRNA levels (GSK3B [3]; 75 ppb and 150 ppb, 24 hours): significantly downregulated | GSK3B mRNA levels (GSK3B [3]; 150 ppb, 6 hours): significantly decreased | GSK3B mRNA expression (GSK3B [3]; [5]): attenuated | UCP3 mRNA expression (UCP3): significant decrease; also recorded: inhibited | pAKT protein levels (pAKT): not visibly decreased | UCP5 (SLC25A14) mRNA expression (UCP5 (SLC25A14)): trend towards decreased; also recorded: trend towards reduced | PSEN2 expression (PSEN2): no downregulation | NICASTRIN mRNA expression (NICASTRIN; [4]): not significantly altered | NICASTRIN mRNA expression, dose-response study (NICASTRIN; IMR-32 cells, 150 ppb, 24 hours): significantly inhibit | NICASTRIN mRNA expression (NICASTRIN; IMR-32 cells, 6 hours): trend towards reduced | NICASTRIN mRNA expression (NICASTRIN; IMR-32 cells, 24 hours): significant decrease | NICASTRIN mRNA expression (NICASTRIN; [5]): inhibited

C[Se]C[C@H](NC(=O)CC[C@H](N)C(=O)O)C(=O)O [Compound E, γ-L-glutamyl-Se-methyl-L-selenocysteine]
RCAN1.1 protein levels (RCAN1.1): not Compound E | phosphorylation of FOXO4 (pFOXO4) levels [1]: decrease | pFOXO4 Threonine 28 (T28) levels [1]: decreased | total GSK3B protein levels (GSK3B [2]): not observed; also recorded: no significant difference | GSK3B mRNA levels (GSK3B [3]; 150 ppb, 6 hours): did not significantly inhibit | UCP3 mRNA expression (UCP3): did not have any effect | pAKT protein levels (pAKT): not visibly decreased | UCP5 (SLC25A14) mRNA expression (UCP5 (SLC25A14)): did not have any effect | PSEN2 expression (PSEN2): no downregulation | NICASTRIN mRNA expression (NICASTRIN; IMR-32 cells, 24 hours): stimulated
